From US11154519B2, “Inhibitors and their uses” (MEDICAL RESEARCH COUNCIL, priority 2015, dated 2021)
Read-outs that look alike come from different tables or passages of the source.

Assays:
[1] = test system: HeLa cells; assay: Cell death dose response (CellTox green, IncuCyte); type: cell-based; settings: for EC50: Homo sapiens, area under % cell death vs time curve against log conc, read-out: Effect on cell death ⇒ EC50; for Effect on cell death: IncuCyte, 0-20 μM
Protocol: Toxicity of the compounds is assessed using Cell viability Counting Kit-8 (Dojindo) or in a Incucyte (Essenbioscience) using both phase contrast and IncuCyte™ Cytotox Green Reagent.
HeLa cells (40,000 cells/ml) were plated in a 96-well plate and treated with different concentrations (0-20 μM) of a compound as indicated in the presence of 250 ng/ml Tunicamycin for 72 hours. To monitor cell death 1/2000 dilution of the CellTox green dye (Promega) was added to the media. The growth of the cells was monitored over time and pictures taken every 2 hours with the IncuCyte ZOOM system and analysed by the IncuCyte ZOOM software (Essen BioScience). […] Cytoprotection against ER stress can be measured by a suitable assay. In this instance, cytoprotection was measured in HeLa cells in which ER stress was elicited by the addition of media containing tunicamycin, a drug that blocks N-glycosylation, thereby preventing protein folding and inducing the unfolded protein response. Cell viability was then detected in the presence and absence of a compound listed in Table 1 after a set period of time, by monitoring cell growth over time. Cytoprotection from ER stress was measured in terms of the percentage increase in viable cells (relative to control) after ER stress.
EC50 were extrapolated from dose response experiments on cell death. Data from IncuCyte was plotted and analysed in Prism. The “% of cell death” for each data point. For each concentration there is a % of cell death vs time, the area under the curve was taken and plotted against log conc=>EC50 (analysis in Prism).

[2] = target: T1, PPP1R15A-PP1 complex (Homo sapiens, UniProt O75807); assay: SPR steady-state binding to R15A-PP1 holophosphatase
T1 construct: cDNAs encoding amino acids 325-636 of PPP1R15A and 340-698 of PPP1R15B were His-tagged and cloned into pMAL-c5x; made in house; host or cells: R15A: E. coli BL21-Gold (pMAL-c5x); PP1γ: Sf9 insect cells (baculovirus, pDW464)
Protocol: PPP1R15A^325-636 and PPP1R15B^340-698 were expressed and purified as follows: the cDNAs encoding amino acids 325-636 of PPP1R15A and 340-698 of PPP1R15B were His-tagged and cloned into pMAL-c5x. Recombinant PPP1R15A/B were expressed in BL21-Gold cells and purified by affinity chromatography on a HisTrap HP column (GE Healthcare), followed by a MBPTrap HP column (GE Healthcare). The proteins were analyzed on BOLT SDS-PAGE 4-12% Bis-Tris gels (Life Technologies) stained with SimplyBlue SafeStain (Life Technologies). cDNA encoding for human PP1γ was cloned into the baculovirus transfer vector pDW464 to add a biotin acceptor peptide (BAP). The vector also encodes for the E. coli biotin holoenzyme synthetase (BirA), so that BAP-tagged proteins can be biotinylated in vivo in Spodoptere frugiperda (Sf9) insect cells (Duffy et al., Anal. Biochem., 262, 122-128, 1998). The Bac-to-Bac baculovirus expression system (Life Technologies) was used to generate the recombinant bacmid DNA and Sf9 insect cells were used to amplify the viral stocks Cultures were harvested by centrifuging at 1,200 g for 15 minutes, cell pellets were resuspended in lysis buffer (50 mM Tris pH 7.4, 150 mM NaCl, 0.2% Triton, 5% Glycerol, 1 PiC tablet (Roche) per 50 ml and 0.2 mM PMSF) and followed by gentle sonication. The protein was first purified on a 5 ml HiTrap Q HP column (GE Healthcare) followed by a HiLoad 16/600 Superdex 200 column (GE Healthcare). The positive fractions confirmed by SDS-PAGE and western blot were pooled, concentrate to ˜1 μM and stored at −80° C.
A Biacore T200 (GE Healthcare) system was used for all experiments and biotinylated PP1 was captured using a Sensor Chip SA (GE Healthcare, catalog no BR-1005-31). The streptavidin coated surface was activated by 1 min injection with a solution of 50 mM NaOH and 1 M NaCl. Biotin-PP1 was diluted in the running buffer (50 mM Tris pH 7.5, 100 mM NaCl, 0.1 mM EGTA, 1 mM MnCl2, 0.05% Tween 20) and injected at approximately 300 nM concentration directly to streptavidin coated surface for 100 sec or to reach immobilization level of biotin-PP1 corresponding to ˜7000 RU. A blank immobilization was performed for one of the SA sensor chip surface to use as a reference.
With minor deviations, the same procedure and conditions were used in all binding experiments. Small molecules were stored as 50 mM stock solutions in 100% DMSO. Prior to determining binding constants, serial dilutions of either 12 or 8 concentrations of the compounds were prepared in the running buffer in a 96-well plate. Prior to each compound dilution series the regulatory subunit, R15A or R15B, was diluted to […] in the running buffer and captured on the biotin-PP1 surface, to form the holophosphatase complex on the sensor chip surface. Then, without regenerating the surface, the compound dilution series was injected onto the surface of the chip Sensorgrams were analyzed using the Biacore T200 evaluation software and the binding constants determined based on a steady-state model. Kinetic experiments are carried out using different concentrations of the compound and their respective equilibrium binding levels determined.
Surface Plasmon Resonance (SPR) was used to measure the binding affinity of compounds to the PPP1R15A/B-PP1 phosphatase complex. Biotin acceptor peptide (BAP) was fused to the N-terminus of PP1γ, which enables the biotinylation of the BAP-tagged protein in Sf9 insect cells. After purification the BAP-PP1γ protein was captured on a streptavidin sensor chip (SA-chip, GE healthcare) to a response level of ˜5.000 RU. Using controlled biotinylation enables orientated and uniform immobilization on the sensor chip surface. The PP1γ was then used to capture PPP1R15A/B and form a holophosphatase complex on the surface of the streptavidin chip. This complex can then be used to test binding of compounds. 10 μM PPP1R15A/B protein concentration was used to form the holophosphatase complex during a 80 s injection. […]

[3] = SPR steady-state, MBP-R15A325-636-His captured on bio-PP1c, 10° C., read-out: R15A (KD)

T1 sequence (O75807 325-636): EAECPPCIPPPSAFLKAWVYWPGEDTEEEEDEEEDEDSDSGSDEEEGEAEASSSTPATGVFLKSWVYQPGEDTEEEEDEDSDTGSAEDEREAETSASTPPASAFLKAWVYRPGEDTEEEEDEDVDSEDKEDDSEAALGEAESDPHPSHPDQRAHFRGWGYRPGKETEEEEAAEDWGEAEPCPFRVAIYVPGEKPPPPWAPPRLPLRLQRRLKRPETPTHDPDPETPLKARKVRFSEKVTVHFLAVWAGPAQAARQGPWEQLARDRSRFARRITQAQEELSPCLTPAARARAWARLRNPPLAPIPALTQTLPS
T1 sequence (P36873 whole entry partner, the tested form may be a part): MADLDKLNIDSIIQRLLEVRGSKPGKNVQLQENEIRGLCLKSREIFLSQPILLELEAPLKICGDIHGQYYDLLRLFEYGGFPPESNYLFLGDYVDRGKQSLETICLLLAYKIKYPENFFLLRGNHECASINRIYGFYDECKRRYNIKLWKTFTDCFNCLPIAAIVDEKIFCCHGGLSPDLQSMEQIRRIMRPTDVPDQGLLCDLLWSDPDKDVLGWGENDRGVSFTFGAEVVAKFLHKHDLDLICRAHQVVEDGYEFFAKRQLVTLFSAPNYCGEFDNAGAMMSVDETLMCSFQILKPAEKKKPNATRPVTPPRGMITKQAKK

Compound	EC50 [1] [µM]	Effect on cell death [1]	Kd [2, 3] [µM]	Kd ([2]; SPR, FIG. 1, read-out: KD for PPP1R15A-PP1) [µM]
[H]/N=C(\N)NN=Cc1ccc(Cl)cc1 [Compound 1, (E)-2-((4-chlorophenyl)methylene)hydrazine-1-carboximidamide]	4.9	Yes	8.32 ± 0.14	–
N=C(N)N/N=C/c1cc(Cl)c(Cl)c(Cl)c1 [Compound 3, (E)-2-(3,4,5-trichlorobenzylidene)hydrazine-1-carboximidamide]	9.17	Yes	4.49 ± 1.47	–
[H]/N=C(\N)NN=Cc1cc(Cl)c(F)c(Cl)c1 [Compound 5, (E)-2-(3,5-dichloro-4-fluorobenzylidene)hydrazine-1-carboximidamide]	9.46	Yes	8.45 ± 0.41	–
[H]/N=C(\N)NN=Cc1ccc(Cl)c(Cl)c1Cl [Compound 6, (E)-2-(2,3,4-trichlorobenzylidene)hydrazine-1-carboximidamide]	9.65	Yes	5.43 ± 1.1	–
[H]/N=C(\N)NN=Cc1cc(F)c(Cl)cc1Cl [Compound 7, (E)-2-(2,4-dichloro-5-fluorobenzylidene)hydrazine-1-carboximidamide]	11.5	Yes	10.2 ± 2.57	–
[H]/N=C(\N)NN=Cc1ccc(Cl)c(F)c1 [Compound 8, (E)-2-(4-chloro-3-fluorobenzylidene)hydrazine-1-carboximidamide]	11.7	Yes	6.37 ± 1.03	–
[H]/N=C(\N)NN=Cc1cccc(Cl)c1Br [Compound 9, (E)-2-(2-bromo-3-chlorobenzylidene)hydrazine-1-carboximidamide]	12	Yes	13.6 ± 0.8	–
[H]/N=C(\N)NN=Cc1cc(Cl)cc(Cl)c1Cl [Compound 10, (E)-2-(2,3,5-trichlorobenzylidene)hydrazine-1-carboximidamide]	12.5	Yes	0.391 ± 0.14	–
[H]/N=C(\N)NN=Cc1ccc(Cl)c(Cl)c1 [Compound 11, (E)-2-(3,4-dichlorobenzylidene)hydrazine-1-carboximidamide]	12.7	Yes	16.2 ± 2.1	–
[H]/N=C(\N)NN=Cc1ccc(Cl)c(F)c1Cl [Compound 13, (E)-2-(2,4-dichloro-3-fluorobenzylidene)hydrazine-1-carboximidamide]	15.5	Yes	4.62 ± 0.59	–
[H]/N=C(\N)NN=Cc1ccc(F)c(Cl)c1Cl [Compound 14, (E)-2-(2,3-dichloro-4-fluorobenzylidene)hydrazine-1-carboximidamide]	18.4	Yes	5.45 ± 1.48	–
[H]/N=C(\N)NN=Cc1ccc(F)c(Cl)c1 [Compound 15, (E)-2-(3-chloro-4-fluorobenzylidene)hydrazine-1-carboximidamide]	19.5	Yes	11.2	–
[H]/N=C(\N)NN=Cc1cccc(Cl)c1Cl [Compound 16, (E)-2-(2,3-dichlorobenzylidene)hydrazine-1-carboximidamide]	20.8	Yes	1.05 ± 0.013	1
[H]/N=C(\N)NN=Cc1ccccc1F [Compound 17, (E)-2-(2-fluorobenzylidene)hydrazine-1-carboximidamide]	–	No	13 ± 0.5	–
N=C(N)N/N=C/c1cc(Cl)c(Cl)cc1F [Compound 18, (E)-2-(4,5-dichloro-2-fluorobenzylidene)hydrazine-1-carboximidamide]	23.8	Yes	10.2 ± 1.62	–
[H]/N=C(\N)NN=Cc1cc(F)ccc1Cl [Compound 20, (E)-2-(2-chloro-5-fluorobenzylidene)hydrazine-1-carboximidamide]	37.8	Yes	5.67 ± 0.72	–
[H]/N=C(\N)NN=Cc1cccnc1Cl [Compound 21, (E)-2-((2-chloropyridin-3-yl)methylene)hydrazine-1-carboximidamide]	–	No	0.832	–
[H]/N=C(\N)NN=Cc1ccc(Cl)nc1Cl [Compound 22, (E)-2-((2,6-dichloropyridin-3-yl)methylene)hydrazine-1-carboximidamide]	–	No	7.62	–
[H]/N=C(\N)NN=Cc1cccc(F)c1 [Compound 23, (E)-2-(3-fluorobenzylidene)hydrazine-1-carboximidamide]	–	No	1.42	–
[H]/N=C(\N)NN=Cc1cccc(Cl)c1 [Compound 24, (E)-2-(3-chlorobenzylidene)hydrazine-1-carboximidamide]	–	No	18.1 ± 7.57	–
[H]/N=C(\N)NN=Cc1cc(Cl)ccc1Cl [Compound 26, (E)-2-(2,5-dichlorobenzylidene)hydrazine-1-carboximidamide]	–	No	23.1 ± 0.9	–
[H]/N=C(\N)NN=Cc1cc(F)cc(F)c1Cl [Compound 29, (E)-2-(2-chloro-3,5-difluorobenzylidene)hydrazine-1-carboximidamide]	–	No	7.87 ± 1.48	–
[H]/N=C(\N)NN=Cc1cccc(Cl)c1F [Compound 30, (E)-2-(3-chloro-2-fluorobenzylidene)hydrazine-1-carboximidamide]	–	No	5.15 ± 1.7	–
[H]/N=C(\N)NN=Cc1c(Cl)ccc(Cl)c1Cl [Compound 31, (E)-2-(2,3,6-trichlorobenzylidene)hydrazine-1-carboximidamide]	–	No	11.1 ± 1.6	–
[H]/N=C(\N)NN=Cc1cc(Cl)cc(Cl)c1 [Compound 34, (E)-2-(3,5-dichlorobenzylidene)hydrazine-1-carboximidamide]	–	No	17.2 ± 1.9	–
